Reference: PubChem BioAssay (NCI)
“And” between values parts separate entries of the source, which are not always exact repeats. Identical values can stand only once.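 Grown in 96-well plates, cells were treated for 48 hours with each compound at five concentrations. Insufficient inhibition: endpoint recorded as highest concentration tested. GI50 = concentration required for 50% inhibition of growth. The concentration for full growth arrest is given as TGI.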

Legend:
Test in all cases: NCI-60 cell line screen, 48 h
BT-549 breast = tested on: BT-549 breast
SK-MEL-5 melanoma = tested on: SK-MEL-5 melanoma
NCI/ADR-RES ovarian = tested on: NCI/ADR-RES ovarian
RXF 393 renal = tested on: RXF 393 renal
MDA-MB-435 = tested on: MDA-MB-435
SN12C renal = tested on: SN12C renal
SNB-75 CNS = tested on: SNB-75 CNS
DMS 273 small cell lung = tested on: DMS 273 small cell lung
HOP-18 NSCLC = tested on: HOP-18 NSCLC
LXFL 529 NSCLC = tested on: LXFL 529 NSCLC

Structure (SMILES) | GI50 (BT-549 breast) [µM] | TGI (BT-549 breast) | GI50 (SK-MEL-5 melanoma) [µM] | TGI (SK-MEL-5 melanoma) | GI50 (NCI/ADR-RES ovarian) [µM] | TGI (NCI/ADR-RES ovarian) | GI50 (RXF 393 renal) [µM] | TGI (RXF 393 renal) | GI50 (MDA-MB-435) | TGI (MDA-MB-435) | GI50 (SN12C renal) [µM] | TGI (SN12C renal) | GI50 (SNB-75 CNS) [µM] | TGI (SNB-75 CNS) | TGI (DMS 273 small cell lung) | TGI (HOP-18 NSCLC) [µM] | TGI (LXFL 529 NSCLC) [µM] | GI50 (DMS 273 small cell lung) [µM] | GI50 (LXFL 529 NSCLC) [µM]
O=C1CCCN1CC#CCN1CCCC1 | > 100 | > 100 µM | > 100 | > 100 µM | > 100 | > 100 µM | > 100 | > 100 µM | > 100 µM | > 100 µM | > 100 | > 100 µM | > 100 | > 100 µM |  |  |  |  | 
C=C(C=O)CCCC(C)[C@@H]1CCC23CC12CCC1[C@@]2(C)CCC(OC(C)=O)C(C)(C)C2CC(OC2OC(COC(C)=O)C(O)C(O)C2O)[C@]13C (some centres undefined) |  |  |  | 11.3 µM |  |  |  | 11.7 µM |  |  |  | 5.77 µM |  | 11.4 µM | 13.3 µM | 16.1 | 8.44 |  | 
O=C1CCC(O)=C1O |  |  |  | > 100 µM |  |  |  | > 100 µM |  |  |  | > 100 µM |  | > 100 µM | > 100 µM | > 100 | > 100 |  | 
CCOc1ccccc1NC(=O)CCc1nc(=S)[nH][nH]1 |  |  |  | > 100 µM |  |  |  | > 100 µM |  |  |  | > 100 µM |  |  |  | > 100 | > 100 |  | 
CCN1CSC(=S)N(CC)C1 |  | > 100 µM |  | > 100 µM |  | > 100 µM |  | > 100 µM |  | > 100 µM |  | > 100 µM |  | > 100 µM |  |  |  |  | 
Cc1cc(=O)oc2cc(O)c(CN(C)CC(=O)O)cc12 |  | > 100 µM |  | > 100 µM |  | > 100 µM |  | > 100 µM |  | > 100 µM |  | > 100 µM |  | > 100 µM |  |  |  |  | 
Cc1c(Cl)cccc1NC(=O)CC1C(=O)Nc2ccccc2S1(=O)=O (centres undefined) |  |  |  | 26.7 µM |  |  |  | 28.9 µM |  |  |  | 31.9 µM |  | 32.5 µM | 21.4 µM |  | 29 |  | 
O=C([CH-]C(=O)C(F)(F)F)c1ccccc1.O=C([CH-]C(=O)C(F)(F)F)c1ccccc1.O=C([CH-]C(=O)C(F)(F)F)c1ccccc1.O=C([CH-]C(=O)C(F)(F)F)c1ccccc1.[Eu+3].c1ccncc1 |  |  | 11.2 | > 100 µM |  |  | 2.25 | 18.8 µM |  |  | 3.74 | 39.7 µM | 6.71 | > 100 µM | > 100 µM |  | > 100 | 8.87 | 4.2
COC(=O)c1c(-c2ccccc2)sc(-c2cccc3ccccc23)c1C(=O)OC |  |  |  | > 100 µM |  |  |  | > 100 µM |  |  |  | > 100 µM |  | > 100 µM | > 100 µM | > 100 | > 100 |  | 
C=C=C(C(=O)OC)S(=O)c1ccc([N+](=O)[O-])cc1[N+](=O)[O-] (centres undefined) |  |  |  | > 100 µM |  |  |  | > 68 µM |  |  |  | 49 µM |  | > 69.7 µM | 64.1 µM | 98.7 | 38 |  | 
COc1cc(Cn2c(-c3nonc3N)nc3ccccc32)ccc1C | 0.463 | 49.4 µM | 0.354 | 19.8 µM | 0.362 | > 37.4 µM | 0.304 | 3.35 µM | 0.168 µM | 0.642 µM | 3.69 | > 100 µM | 0.248 | 1.13 µM |  |  |  |  | 
CCOc1c(Cl)cc(CNC(C)C(O)c2ccccc2)cc1OC (centres undefined) | 41.1 | > 100 µM | 16.6 | 30.6 µM | 20.2 | 59.1 µM | 16.4 | 52.1 µM | 16.2 µM | 32.3 µM | 38.7 | > 100 µM | 12.7 | 46.9 µM |  |  |  |  | 
CN=C1SC(=Nc2ccc(N(C)C)cc2)N1C |  |  |  | > 100 µM |  |  |  |  |  |  |  | > 100 µM |  | 49.1 µM | > 100 µM | > 100 | > 100 |  | 
Nc1ccc(S(=O)(=O)NCc2nccs2)cc1 |  | 45.3 µM |  | 29.6 µM |  | 62.7 µM |  | > 100 µM |  | 38.8 µM |  | 37.8 µM |  | 58.8 µM |  |  |  |  | 
CN[C@@H]1C[C@H]2O[C@@](C)([C@@H]1OC)n1c3ccccc3c3c4c(c5c6ccccc6n2c5c31)C(=O)N[C@@H]4O | 0.0193 | 0.3 µM and 0.627 µM |  | 0.766 µM | 0.105 | 0.3 µM and 0.42 µM | 0.00955 | 0.0345 µM and < 0.0219 µM | 0.0478 µM | 0.3 µM and 1.88 µM |  | 6.77 µM | 0.00322 | 0.0143 µM and 0.0271 µM | 0.637 µM | 0.268 | 0.549 |  | 
CC(=O)O[C@@H]1C2C(=O)OC(=O)C2C2CCC[C@]23O[C@H]13 (some centres undefined) |  |  |  | > 100 µM |  |  |  | > 100 µM |  |  |  | > 100 µM |  | > 100 µM | > 100 µM | > 100 | > 100 |  | 
CC[C@@]1(O)C(=O)OCc2c1cc1n(c2=O)Cc2cc3cc(N)ccc3nc2-1 | 0.158 | 1.11 µM | 0.0238 | 0.195 µM and 0.0366 µM |  | 0.169 µM and 0.116 µM | 0.0489 |  | 0.12 µM and 0.0188 µM | 0.663 µM and 0.133 µM | 0.0142 | 0.243 µM and 0.123 µM |  | 0.364 µM and 0.0446 µM | 0.129 µM and 0.179 µM | > 100 | 3.15 | 0.00263 | 0.204
CCOC(=O)CC1NC(=O)CS1 (centres undefined) |  |  |  | > 100 µM |  |  |  |  |  |  |  | > 100 µM |  | > 100 µM | > 100 µM | > 100 | > 100 |  | 
